In patent US20220378786A1, “METHODS OF DEFINING FUNCTIONAL CHANGE AND SLOWING PROGRESSION IN CHRONIC LIVER DISEASE” (priority 2021, published 2022):

System: hepatic function and portal-systemic shunting in subjects with CLD
Test: HepQuant SHUNT test (DSI and SHUNT %) relative to concomitant drug therapy in the SHUNT-V clinical study
Type: in vivo, human
Conditions: for Coefficient (Δ DSI score): multi-variable regression analysis of prescribed medications, Base DSI 27.0682; for ΔDSI: univariable regression analysis, 270 SHUNT-V subjects with CLD, on drug vs not on drug, lower DSI = better hepatic function
Source text: For example, a HepQuant® cholate liver function test (HepQuant, LLC) can be used to determine the presence and severity of liver diseases. A HepQuant® test can be a HepQuant® DSI test, HepQuant® SHUNT test or a HepQuant® STAT test. […] The term “SHUNT test” refers to a previously disclosed QLFT (quantitative liver function test) used as a comprehensive assessment of hepatic blood flow and liver function. The SHUNT test may be used to determine plasma clearance of orally and intravenously administered distinguishable cholic acids in subjects with and without chronic liver disease. SHUNT fraction or percent quantifies the spillover of the PO d4-cholate into the systemic circulation from the ratio of the clearance of the intravenously administered 13C-cholate to the clearance of the orally administered d4-cholate. In the SHUNT test, at least 5 blood samples are analyzed which have been drawn from a patient at intervals over a period of about 90 minutes after oral and intravenous administration of differentiable cholates. The SHUNT test is disclosed in Everson et al., U.S. Pat. […] The “SHUNT test value” refers to a number (in %). The term “SHUNT %” represents a quantitative measurement of portal-systemic shunting. SHUNT % is a measurement of the percentage of spillover of the orally administered d4-cholate. The first-pass hepatic elimination of cholate in percent of orally administered cholate is defined as (100%—SHUNT). Analysis of samples for stable isotopically labeled cholates is performed by, e.g., GC-MS, following sample derivitization, or LC-MS, without sample derivitization, or LC-MS/MS, or MS/MS. The ratio of the AUCs of orally to intravenously administered cholic acid, corrected for administered doses, defines cholate shunt. The cholate shunt can be calculated using the formula: AUCoral/AUCiv×Doseiv/Doseoral×100%, wherein AUCoral is the area under the curve of the serum concentrations of the orally adminstered cholic acid and AUCiv is the area under the curve of the intravenously administered cholic acid. The SHUNT test allows measurement of first-pass hepatic elimination of bile acids from the portal circulation. The term “DSI test” refers to a cholate Disease Severity Index test which is derived from one or more liver function test results based on hepatic blood flow. The DSI score is a function of the sum of cholate clearances from systemic and portal circulations adjusted to disease severity ranging from healthy subjects to end stage liver disease. DSI is a score without units representing a quantitative measurement of liver function. A disease severity index (DSI) value may be obtained in a patient by a method comprising (a) obtaining one or more liver function test values in a patient having or at risk of a chronic liver disease, wherein the one or more liver function test values are obtained from one or more liver function tests selected from the group consisting of SHUNT, portal hepatic filtration rate (portal HFR), and systemic hepatic filtration rate (systemic HFR); and (b) employing a disease severity index equation (DSI equation) to obtain a DSI value in the patient, wherein the DSI equation comprises one or more terms and a constant to obtain the DSI value, wherein at least one term of the DSI equation independently represents a liver function test value in the patient, or a mathematically transformed liver function test value in the patient from step; and the at least one term of the DSI equation is multiplied by a coefficient specific to the liver function test. DSI is an index, or score, that encompasses the cholate clearances from both systemic and portal circulations. DSI has a range from 0 (healthy) to 50 (severe end-stage disease) and is calculated from both HFRs. […] DSI test methods and equations are disclosed in U.S. Pat. Nos. 9,091,701, 9,759,731, 10,520,517, each of which is incorporated herein by reference in its entirety. Additional DSI equations have been developed and are provided herein.

[1] = ON-OFF drug, subset of 130 subjects taking anti-diabetic drug therapies (Table 6, FIG. 18)
[2] = multi-variable regression with statins, metformin, diabetes diagnosis and NASH diagnosis

Row | Molecule | mean difference in DSI [1] | mean difference in SHUNT [1] [%] | Coefficient (Δ DSI score) | Decline in DSI [2] | Decline in SHUNT % [2] [%] | Resultant DSI (multi-variable regression, Base DSI 27.0682 plus coefficients, cumulative down the table (metformin line includes the statin coefficient)) | % Reduction in DSI (multi-variable regression, relative to Base DSI 27.0682, cumulative down the table (metformin line includes statins)) [%] | ΔDSI
1 | CN(C)C(=N)N=C(N)N [Metformin, metformin] | −2.4 | −7.4 | −2.2637 | −2.4337 | −5.9 | 21.55 | −20.4 | −4.1777
2 | CCc1ccc(CCOc2ccc(CC3SC(=O)NC3=O)cc2)nc1 (centres unmarked) [Pioglitazone] |  |  | 0.2725 |  |  |  |  | −2.4995
3 | Insulin: insulin, anti-diabetic drug therapy |  |  | −0.7947 |  |  |  |  | −2.746
4 | Vitamin E |  |  | −1.6505 |  |  |  |  | −2.0475
